# Tested on: nitrification
# Experiment: Inhibition of nitrification in soil incubation test (ammonium and nitrate content after 14 days)
# Settings: 100 g soil, 10 mg ammonium sulfate-N, 20° C., 0 and 14 days; for NI* @ 0.3%: compound at 0.3% (of nitrogen N); for NI* @ 1%: compound at 1% (of nitrogen N); for NI* @ 3%: compound at 3% (of nitrogen N)
# Method: The compounds of the invention have been tested as follows in terms of the inhibition of nitrification:
# 100 g soil is filled into 500 ml plastic bottles (e.g. soil sampled from the field) and is moistened to 50% water holding capacity. The soil is incubated at 20° C. for two weeks to activate the microbial biomass. 1 ml test solution, containing the compound in the appropriate concentration (usually 0.3 or 1% of nitrogen N), or DMSO and 10 mg nitrogen in the form of ammonium sulfate-N is added to the soil and everything mixed well. Bottles are capped but loosely to allow air exchange. The bottles are then incubated at 20° C. for 0 and 14 days.
# For analysis, 300 ml of a 1% K2SO4-solution is added to the bottle containing the soil and shaken for 2 hours in a horizontal shaker at 150 rpm. Then the whole solution is filtered through a filter (Macherey-Nagel Filter MN 807%). Ammonium and nitrate content is then analyzed in the filtrate in an autoanalyzer at 550 nm (Merck, AA11).
# The inhibition (NI @ a specified concentration) is calculated as follows: […]
SMILES,NI* @ 0.3%,NI* @ 1%,NI* @ 3%
"COc1cccc(C(=O)N2CCSC2=S)c1 [Cmpd. 2, 3-(3-Methoxybenzoyl)-2-thiazolidinethione]",34.8,73.1,67.9
"COc1ccc(C(=O)N2CCSC2=S)cc1OC [Cmpd. 8, 3-(3,4-Dimethoxybenzoyl)-2-thiazolidinethione]",,,55
"CC(=O)N1CCSC1=S [Cmpd. 4, 3-Acetylthiazolidine-2-thione]",,32.3,68.7
"O=C(c1cccc(Br)c1)N1CCSC1=S [Cmpd. 9, 3-(3-Bromobenzoyl)-2-thiazolidinethione]",,,49
"O=C(Cc1ccccc1)N1CCSC1=S [Cmpd. 3, 3-(Phenylacetyl)-2-thiazolidinethione]",26.6,55.3,71.1
"CN1CCSC1=S [Cmpd. 11, 3-Methyl-2-thiazolidinethione]",,,39.9
"O=C(c1ccc(Cl)cc1)N1CCSC1=S [Cmpd. 5, 3-(4-Chlorobenzoyl)-2-thiazolidinethione]",,30.7,67
"CC1(C)CSC(=S)N1 [Cmpd. 6, 4,4-Dimethyl-2-thiazolidinethione]",,,57.5
"O=C(c1ccccc1)N1CCSC1=S [Cmpd. 10, 3-Benzoyl-2-thiazolidinethione]",,,48.4
"S=C1NCCS1 [Cmpd. 1, 1,3-Thiazolidine-2-thione]",,47,83.5
"Cc1c(C(=O)N2CCSC2=S)oc2ccccc12 [Cmpd. 12, 3-[(3-Methyl-2-benzofuranyl)carbonyl]-2-thiazolidinethione]",,,39
"COc1ccc(C(=O)N2CCSC2=S)cc1 [Cmpd. 7, 3-(4-Methoxybenzoyl)-2-thiazolidinethione]",19.8,27.5,57.4
